The record followed here is US7897781B2, “Cold menthol receptor-1 antagonists” (Janssen Pharmaceutica NV, priority 2006, dated 2011).

One test concerns male SD rats. Nature of the test: Chronic constriction injury (CCI)-induced model of neuropathic pain, acetone-induced hypersensitivity. It is filed as in vivo, rat. The conditions noted are these: 30 mg/kg p.o., preRx 1 hr. How it is done:
Through the mesh floor a series of five applications of acetone (0.05 mL/application) was sprayed onto the bottom of the paw using a multidose syringe device. A positive response took the form of an abrupt withdrawal or lifting of the paw. The percentage of positive responses from the five trials represented the individual's overall response that was then averaged over the entire treatment group. […] An ascending dose response relationship (as in Table 10 below) was generated by addition of successive doses of test compound followed by re-assessment of behavior.

The next test deals with rats. Briefly: Reversal of icilin-induced behaviors in rats. The conditions noted are these: 30 mg/kg p.o., 1 h post-icilin. In kind it is in vivo, rat. How it is done: In this paradigm, icilin-induced shaking was counted for 10 minutes followed by administration of a compound of Formula (I). The diminution of shaking behavior is represented as a percent inhibition relative to icilin-induced shakes in the absence of test compound administration, as described by the following formula: % Inhibition=[1−(WDS count following test compound dose/WDS count prior to test compound dose)]×100.

Another test concerns Sprague-Dawley rats. Nature of the test: CFA-induced paw radiant heat hypersensitivity. It is filed as in vivo, rat. The settings on record: 30 mg/kg p.o. How it is done:
Intraplantar injection of Complete Freund's Adjuvant (CFA) in rodents results in a long-lasting inflammatory reaction, characterized by a pronounced hypersensitivity to both thermal and mechanical stimuli. This hypersensitivity peaks between 24-72 hours following injection and can last for several weeks. […] This paradigm also may be conducted with a multiple dosing or a prophylactic dosing regime designed to alter the course of hyperalgesia development. This test predicts the analgesic, anti-allodynic and antihyperalgesic effect of numerous effective clinical agents, including NSAIDS such as acetaminophen, aspirin and ibuprofen, and opioids such as morphine.
Each rat was placed in a test chamber on a warm glass surface and allowed to acclimate for approximately 10 minutes. A radiant thermal stimulus (beam of light) was then focused through the glass onto the plantar surface of each hind paw in turn. The thermal stimulus was automatically shut off by a photoelectric relay when the paw was moved or when the cut-off time was reached (20 seconds for radiant heat at ˜5 Amps). An initial (baseline) response latency to the thermal stimulus was recorded for each animal prior to the injection of CFA. Twenty-four hours following intraplantar CFA injection, the response latency of the animal to the thermal stimulus was then re-evaluated and compared to the animal's baseline response time. […] Immediately following the post-CFA latency assessment, test compound or vehicle (usually Solutol, hydroxypropyl methylcellulose, hydroxypropyl beta-cyclodextrin or PEG-400) was administered i.p. or p.o. to rats. […] The percent reversal (% R) of hypersenstivitiy was calculated according to the following formula: % Reversal=(Treatment Response−CFA Response)/(Baseline Response−CFA Response)×100.

Test [1] has as its target T1, canine TRPM8 (Canis lupus familiaris, UniProt Q1A7N1).
T1 construct: expressed in transfected cells
Briefly: In vitro canine TRPM8 functional assay (Ca2+-sensitive dye, icilin activation; Table 4 TRPM8 Screening). It is filed as cell-based. The settings on record: HEK293 cells expressing canine TRPM8, icilin activation; for % I (0.5 μM): compound at 0.5 μM; for % I (1 μM): compound at 1 μM. In outline:
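HEK293 cells stably expressing canine TRPM8, loaded with Calcium 3 dye, preincubated with compound for 5 min before icilin at a concentration giving ~80% maximal response. Ca2+ fluorescence by FLIPR or FDSS; basal-subtracted, normalized to % maximal response, quadruplicate wells, sigmoidal fit for EC50/IC50.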

Test [2] deals with T1, canine TRPM8. Nature of the test: TRPM8 patch clamp assays. The conditions noted are these: whole-cell patch clamp, HEK293. It is filed as cell-based. How it is done:
For patch clamp experiments, HEK293 cells stably transfected with canine TRPM8 were cultured in DMEM supplemented with 10% fetal bovine serum, 100 units/ml penicillin, 100 μg/ml streptomycin and 1 mg/ml G418. Cells were maintained at 37° C. and in 5% CO2.
The extracellular solution contained (in mM): NaCl, 132; EGTA, 1; KCl, 5.4; MgCl2, 0.8; HEPES, 10; glucose, 10; pH=7.4. Recordings were performed using the conventional whole-cell patch clamp technique, 1-2 days after plating cells onto glass coverslips at densities appropriate for single cell recording. Currents were amplified by a patch clamp amplifier and filtered at 2 kHz (Axopatch 200B, Molecular Devices, Union City, Calif.). Menthol (100 μM) was applied to the cell at 0.5 ml/min via a gravity-fed perfusion system. […]
In experiments where temperatures were varied, temperature ramps were generated by cooling the perfusate in an in-line cooler (Model SC-20, Warner Instruments, Hamden, Conn.) controlled by a temperature controller (Model CL-100, Warner Instruments). The temperature in the vicinity of the recorded cell was measured with a custom-made miniature thermo-microprobe connected to a monitoring thermometer (Model TH-8, Physitemp, Clifton, N.J.), and sampled using Digidata 1322A and pClamp 9.0 (Molecular Devices), as were the currents concurrently measured in the whole-cell patch clamp mode. […]
On the technique in general: The patch-clamp technique gives a direct electrical read-out from membranes.

Several values for one entry are separate records, joined by “and”; a condition that tells them apart may be missing. Equal values may be shown once.

T1 sequence (Q1A7N1 1-1104): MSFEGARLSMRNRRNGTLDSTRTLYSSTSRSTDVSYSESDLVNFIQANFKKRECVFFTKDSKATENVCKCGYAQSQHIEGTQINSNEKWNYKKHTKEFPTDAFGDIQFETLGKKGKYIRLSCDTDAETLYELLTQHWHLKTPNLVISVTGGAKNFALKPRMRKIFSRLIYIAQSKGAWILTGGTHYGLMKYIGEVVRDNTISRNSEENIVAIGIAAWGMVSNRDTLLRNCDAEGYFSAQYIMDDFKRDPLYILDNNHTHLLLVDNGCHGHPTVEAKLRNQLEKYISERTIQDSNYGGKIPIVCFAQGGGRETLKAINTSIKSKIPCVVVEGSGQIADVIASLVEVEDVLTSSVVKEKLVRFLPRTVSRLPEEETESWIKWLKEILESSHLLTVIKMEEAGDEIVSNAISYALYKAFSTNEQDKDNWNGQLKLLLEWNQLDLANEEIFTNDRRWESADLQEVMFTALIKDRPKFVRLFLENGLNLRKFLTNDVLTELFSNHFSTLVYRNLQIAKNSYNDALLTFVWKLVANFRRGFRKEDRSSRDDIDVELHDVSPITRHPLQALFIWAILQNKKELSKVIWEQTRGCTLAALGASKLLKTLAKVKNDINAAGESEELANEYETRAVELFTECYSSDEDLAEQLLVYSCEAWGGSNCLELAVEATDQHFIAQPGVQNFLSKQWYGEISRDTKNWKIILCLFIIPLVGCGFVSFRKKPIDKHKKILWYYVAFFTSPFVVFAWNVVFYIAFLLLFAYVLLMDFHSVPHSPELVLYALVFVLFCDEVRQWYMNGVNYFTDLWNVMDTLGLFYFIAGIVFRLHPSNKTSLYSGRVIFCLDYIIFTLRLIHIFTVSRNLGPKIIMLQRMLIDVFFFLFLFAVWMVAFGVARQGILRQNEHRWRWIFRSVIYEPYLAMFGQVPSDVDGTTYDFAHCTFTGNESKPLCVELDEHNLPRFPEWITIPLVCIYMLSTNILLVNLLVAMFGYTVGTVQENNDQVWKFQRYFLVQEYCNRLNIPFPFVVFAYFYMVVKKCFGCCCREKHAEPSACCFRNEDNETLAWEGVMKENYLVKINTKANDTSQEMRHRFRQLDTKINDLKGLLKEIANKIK

For “(S)-[1-(3-Bromo-benzo[b]thiophen-2-yl)-2-(4-fluoro-phenyl)ethyl]-phosphonic acid diisopropyl ester [Cpd 239]”, in the test with male SD rats, the “% of Allodynic Baseline” value is reported as 29.4%. In the test with rats, the % Inhibition (in general, the relative decrease from the control value, in per cent) is given as 48.4%. The “% Reversal” value with Sprague-Dawley rats (time 2 h) is on record as 36%. Also, the “% I (0.5 μM)” value on canine TRPM8 [1] was 103, 103%. The half-maximal inhibitory concentration (IC50) (in general, the midpoint of a concentration-inhibition curve) at canine TRPM8 [1] (eight-point dose-response) is 37 nM and 27 nM and 31 nM; at canine TRPM8 [2] (read-out: Cold (10° C.) IC50, mode of activation cold 10° C.) it was 5.8 nM; on canine TRPM8 [2] (read-out: Menthol (100 μM) IC50, mode of activation menthol 100 μM, 22° C.) it was 3 nM.
In the case of `CCOP(=O)(OCC)C(Cc1ccc(F)c(C(F)(F)F)c1)c1sc2ccccc2c1Cl` (racemic) [Cpd 298], in the test with Sprague-Dawley rats (time 1 h), the “% Reversal” value stood at 20%. The “% I (0.5 μM)” value on canine TRPM8 [1] was determined as 99%.
Turning to `CCOP(=O)(OCC)C(Cc1ccc(SC)cc1)c1sc2ccccc2c1Cl` (racemic) [Cpd 299], the “% Reversal” value in the test with Sprague-Dawley rats (time 1 h) is given as 23%.
Consider `CC(C)OP(=O)(OC(C)C)C(Cc1ccc(Cl)c(F)c1)c1sc2ccccc2c1Br` (stereo not drawn) [Cpd 190], for which, in the test with Sprague-Dawley rats (time 1 h), the “% Reversal” value is 45%.
Turning to `CCOP(=O)(OCC)C(Cc1ccc(F)c(Cl)c1)c1sc2ccccc2c1Br` (racemic) [Cpd 244], the “% Reversal” value in the test with Sprague-Dawley rats (time 2 h) is on record as 45%.
“(S)-[1-(3-Bromo-benzo[b]thiophen-2-yl)-2-(4-trifluoromethoxy-phenyl)-ethyl]-phosphonic acid diisopropyl ester [Cpd 236]”: in the test on Sprague-Dawley rats (time 2 h), the “% Reversal” value is 25%.
`CC(C)OP(=O)(OC(C)C)C(Cc1cc(C(F)(F)F)ccc1F)c1sc2ccccc2c1Br` (stereo not drawn) [Cpd 335]: the “% Reversal” value in the test on Sprague-Dawley rats (time 1 h) is 0%.
In the case of `CC(C)OP(=O)(OC(C)C)C(Cc1ccc(C(F)(F)F)cc1)c1sc2ccccc2c1Br` (stereo not drawn) [Cpd 336], the “% Reversal” value in the test on Sprague-Dawley rats (time 1 h) turned out to be 64%.
Regarding `CC(C)OP(=O)(OC(C)C)C(Cc1ccc(F)cc1)c1sc2ccccc2c1Br` (stereo not drawn) [Cpd 197], the “% Reversal” value in the test with Sprague-Dawley rats (time 2 h) came to 23%. Moreover, the “% I (1 μM)” value on canine TRPM8 [1] amounted to 100%.
Take `CCOP(=O)(OCC)C(Cc1cccc(Cl)c1Cl)c1cc2ccccc2s1` (stereo not drawn) [Cpd 100]: on canine TRPM8 [1], the “% I (1 μM)” value is 82%.
Take `CCOP(=O)(OCC)C(Cc1cccc(Cl)c1F)c1sc2ccccc2c1C` (stereo not drawn) [Cpd 23]: the “% I (1 μM)” value on canine TRPM8 [1] was 100%.
As for `CCOP(=O)(OCC)C(Cc1ccc(C(F)(F)F)cc1)c1cc2ccccc2s1` (stereo not drawn) [Cpd 68], the “% I (1 μM)” value at canine TRPM8 [1] is 96%.
Regarding `CCOP(=O)(OCC)C(Cc1c(Cl)cccc1Cl)c1cc2ccccc2s1` (stereo not drawn) [Cpd 95], the “% I (1 μM)” value on canine TRPM8 [1] was 89%. Moreover, the “% I (5 μM)” value at canine TRPM8 [1] (compound at 5 μM) worked out at 100%.
Take `CCCS(=O)(=O)n1c(C(Cc2ccc(F)c(C(F)(F)F)c2)P(=O)(OC(C)C)OC(C)C)c(Br)c2ccccc21` (stereo not drawn) [Cpd 332]: the “% I (0.5 μM)” value on canine TRPM8 [1] was found to be 72%.
Take `CCOP(=O)(OCC)C(Cc1ccc(F)c(OC)c1)c1sc2ccccc2c1Br` (stereo not drawn) [Cpd 156]: the “% I (0.5 μM)” value on canine TRPM8 [1] came to 98%.
